Test results from patent EP1979351B1, “6-PHENYL-1H-IMIDAZO[4, 5-C]PYRIDINE-4-CARBONITRILE DERIVATIVES AS CATHEPSIN K AND S INHIBITORS” (N.V. Organon, priority 2006, dated 2007).

Biological target: recombinant human Cathepsin S (Homo sapiens, UniProt P25774)
Assay: Cathepsin S assay procedure: inhibition of enzyme activity, fluorescence of liberated aminomethylcoumarin
Type: biochemical
Details: activated recombinant human cathepsin S; substrate Z-Val-Val-Arg-AMC; sodium acetate pH5.5; fluorescence at 20 minutes; dose response curve; read-out: pIC50 (negative logarithm of the IC50 concentration) for inhibition of human cathepsin S (converted)
Description: 25µl of a 2mg/l solution of activated recombinant human cathepsin S, in assay buffer, is then added to the well, yielding a final inhibitor concentration of 10µM.
Enzyme activity is determined by measuring the fluorescence of the liberated aminomethylcoumarin at […] using 390nm excitation, at 20 minutes. Percentage enzyme activity is calculated by comparison of this activity to that of a solution containing no inhibitor.

Chain of recombinant human Cathepsin S (P25774 115-331): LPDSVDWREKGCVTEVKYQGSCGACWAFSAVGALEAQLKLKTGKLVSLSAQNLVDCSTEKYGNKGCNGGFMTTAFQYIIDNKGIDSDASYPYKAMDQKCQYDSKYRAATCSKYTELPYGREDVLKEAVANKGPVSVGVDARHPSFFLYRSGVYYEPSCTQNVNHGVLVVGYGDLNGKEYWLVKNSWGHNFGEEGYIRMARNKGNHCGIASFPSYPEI

Row | IC50 [nM] | SMILES
1 | < 100 | CCOc1ccc(-c2cc3c(ncn3CCCC(=O)O)c(C#N)n2)cc1C(F)(F)F [Example 4, [4-Cyano-6-(4-ethoxy-3-trifluoromethyl-phenyl)-imidazo[4,5-c]pyridin-1-yl]-butyric acid]
2 | < 100 | CCOc1ccc(-c2cc3[nH]c(CN4CCN(CCO)CC4)nc3c(C#N)n2)cc1C(F)(F)F [Example 13l, 6-(4-Ethoxy-3-trifluoromethyl-phenyl)-2-[4-(2-hydroxy-ethyl)-piperazin-1-ylmethyl]-1H-imidazo[4,5-c]pyridine-4-carbonitrile]
